Measurements as given in patent publication US6552080B1, “Fungicidal compounds having a fluorovinyl-or fluoropropenyl-oxyphenyloxime moiety and process for the preparation thereof” (Korea Research Institute of Chemical Technology, priority 1999, dated 2003).
Read-outs that look alike come from different tables or passages of the source.

Tests used:
Botrytis cinerae = test: Fungicidal activity against Cucumber Gray Mold Rot (CGM) disease; format: in vivo; settings: for Fungicidal Activities CGM (C.V.): 50 ppm; for CGM (Fungicidal Activities, C.V.): Cucumber Gray Mold Rot, concentration 50 ppm
[1] = test system: Pyricularia oryzae Carvara KA301; format: in vivo; settings: for RCV (Fungicidal Activities, C.V.): Rice Blast
Puccinia recondita = test: Fungicidal activity against Wheat Leaf Rust (WLR) disease; format: in vivo; settings: for WLR (Fungicidal Activities, C.V.): Wheat Leaf Rust
Erysiphae graminis = test: Fungicidal activity against Barley Powdery Mildew (BPM) disease; format: in vivo; settings: for BPM (Fungicidal Activities, C.V.): Barley Powdery Mildew
Rhizoctonia solani AG-1 = test: Fungicidal activity against Rice Sheath Blight (RSB) disease; settings: for RSB (Fungicidal Activities, C.V.): Rice Sheath Blight, concentration 50 ppm
Phytophthora infestans = format: in vivo; settings: for TLB (Fungicidal Activities, C.V.): Tomato Late Blight, concentration 50 ppm

SMILES | Fungicidal Activities CGM (C.V.) (Botrytis cinerae) [%] | Fungicidal Activities RCV (C.V.) ([1]; 50 ppm) [%] | Fungicidal Activities WLR (C.V.) (Puccinia recondita; 50 ppm) [%] | Fungicidal Activities BPM (C.V.) (Erysiphae graminis; 50 ppm) [%] | Fungicidal Activities RSB (C.V.) (Rhizoctonia solani AG-1; 50 ppm) [%] | Fungicidal Activities TLB (C.V.) (Phytophthora infestans; 50 ppm) [%] | CGM (Fungicidal Activities, C.V.) (Botrytis cinerae) [%] | RCV (Fungicidal Activities, C.V.) ([1]; concentration 50 ppm) [%] | WLR (Fungicidal Activities, C.V.) (Puccinia recondita; concentration 10 ppm) [%] | WLR (Fungicidal Activities, C.V.) (Puccinia recondita; concentration 50 ppm) [%] | BPM (Fungicidal Activities, C.V.) (Erysiphae graminis; concentration 10 ppm) [%] | BPM (Fungicidal Activities, C.V.) (Erysiphae graminis; concentration 50 ppm) [%] | RSB (Fungicidal Activities, C.V.) (Rhizoctonia solani AG-1) [%] | TLB (Fungicidal Activities, C.V.) (Phytophthora infestans) [%] | RCV (Fungicidal Activities, C.V.) ([1]; concentration 10 ppm) [%] | further results
CNC(=O)C(=NOC)c1ccccc1CON=C(C)c1cccc(OC(F)=C(c2ccc(C)cc2)C(F)(F)F)c1 [Compound 192] | 75 | 100 | 100 | 100 | 100 | 40 |  |  |  |  |  |  |  |  |  | Fungicidal Activities RCV (C.V.) ([1]; 2 ppm): 100%; Fungicidal Activities WLR (C.V.) (Puccinia recondita; 2 ppm): 98%; Fungicidal Activities BPM (C.V.) (Erysiphae graminis; 2 ppm): 100%; Fungicidal Activities RSB (C.V.) (Rhizoctonia solani AG-1; 2 ppm): 40%; Fungicidal Activities TLB (C.V.) (Phytophthora infestans; 2 ppm): 37%
CCCCc1ccc(C(=C(F)Oc2cccc(C(C)=NOCc3ccccc3C(=COC)C(=O)OC)c2)C(F)(F)F)cc1 [Compound 156] |  |  |  |  |  |  | 36 | 33 | 95 | 93 | 91 | 92 | 20 | 0 |  | 
COC=C(C(=O)OC)c1ccccc1CON=C(C)c1cccc(OC(F)=Cc2ccc3ccccc3c2)c1 [Compound 56] |  |  |  |  |  |  | 5 | 95 | 100 | 100 | 100 | 100 | 70 | 57 | 80 | RCV (Fungicidal Activities, C.V.) ([1]; concentration 2 ppm): 25%; WLR (Fungicidal Activities, C.V.) (Puccinia recondita; concentration 2 ppm): 95%; BPM (Fungicidal Activities, C.V.) (Erysiphae graminis; concentration 2 ppm): 100%
COC=C(C(=O)OC)c1ccccc1CON=Cc1cccc(OC(F)=Cc2ccc(C)cc2)c1 [Compound 3] |  |  |  |  |  |  | 46 | 100 | 98 | 100 | 99 | 100 | 60 | 84 | 80 | RCV (Fungicidal Activities, C.V.) ([1]; concentration 2 ppm): 0%; WLR (Fungicidal Activities, C.V.) (Puccinia recondita; concentration 2 ppm): 96%; BPM (Fungicidal Activities, C.V.) (Erysiphae graminis; concentration 2 ppm): 86%
CON=C(C(=O)OC)c1ccccc1CON=C(C)c1cccc(OC(F)=C(c2cc(Cl)cc(Cl)c2)C(F)(F)F)c1 [Compound 186] | 25 | 83 | 99 | 100 | 50 | 0 |  |  |  |  |  |  |  |  |  | Fungicidal Activities RCV (C.V.) ([1]; 2 ppm): 73%; Fungicidal Activities WLR (C.V.) (Puccinia recondita; 2 ppm): 66%; Fungicidal Activities BPM (C.V.) (Erysiphae graminis; 2 ppm): 86%; Fungicidal Activities RSB (C.V.) (Rhizoctonia solani AG-1; 2 ppm): 15%; Fungicidal Activities TLB (C.V.) (Phytophthora infestans; 2 ppm): 0%
COC=C(C(=O)OC)c1ccccc1CON=C(c1cccc(OC(F)=Cc2ccc(C)cc2)c1)C(F)(F)F [Compound 85] |  |  |  |  |  |  | 7 | 93 | 93 | 96 | 92 | 99 | 40 | 0 | 16 | 
CON=C(C(=O)OC)c1ccccc1CON=C(c1cccc(OC(F)=C(c2ccccc2)C(F)(F)F)c1)C(F)(F)F [Compound 221] | 0 | 41 | 100 | 100 | 30 | 0 |  |  |  |  |  |  |  |  |  | Fungicidal Activities WLR (C.V.) (Puccinia recondita; 10 ppm): 91%; Fungicidal Activities BPM (C.V.) (Erysiphae graminis; 10 ppm): 96%
